Experiment: logP determination through HPLC (EEC directive 79/831 Annex V. A8)
Format: physicochemical
Conditions: not given

Which logP does the source give for `CC(Nc1c(-c2cc(Cl)sc2Cl)c(Cl)nc2c(C#N)cnn12)C(F)(F)F` (single isomer, unassigned) [Example 31] here?
The logP was 4.46.

With `CC(Nc1c(-c2ncncc2Cl)c(Cl)nc2c(C=O)cnn12)C(F)(F)F` (single isomer, unassigned) [Example 55] as the compound, how does the logP read?
Its logP is 2.46.

With `CC(Nc1c(-c2ncncc2Cl)c(Cl)nc2c(C#N)cnn12)C(C)(C)C` (stereo not shown) [Example 3] as the compound, how does the logP read?
Its logP is 3.54.

With `CC(C)C(C)Nc1c(-c2ncncc2Cl)c(Cl)nc2c(C#N)cnn12` (stereo not shown) [Example 4] as the compound, how does the logP read?
Its logP is 3.13.

With `CC(Nc1c(-c2ncncc2Cl)c(Cl)nc2c(Cl)cnn12)C(C)(C)C` (stereo not shown) [Example 5] as the compound, how does the logP read?
The logP was 4.36.

With `CC(C)CNc1c(-c2cc(Cl)sc2Cl)c(Cl)nc2c(C#N)cnn12` [Example 9] as the compound, how does the logP read?
Its logP is 4.82.

For `CCC(C)Nc1c(-c2cc(Cl)sc2Cl)c(Cl)nc2c(C#N)cnn12` (stereo not shown) [Example 10], which logP is on record?
Its logP is 4.82.

Which logP does the source give for `CC(C)Nc1c(-c2cc(Cl)sc2Cl)c(Cl)nc2c(C#N)cnn12` [Example 11] here?
Its logP is 4.41.

Which logP does the source give for `CC(C)CN(C)c1c(-c2cc(Cl)sc2Cl)c(Cl)nc2c(C#N)cnn12` [Example 12] here?
The logP was 5.31.

For `CC(C)(C)CNc1c(-c2cc(Cl)sc2Cl)c(Cl)nc2c(C#N)cnn12` [Example 15], which logP is on record?
The logP was 5.31.

For `COCCNc1c(-c2cc(Cl)sc2Cl)c(Cl)nc2c(C#N)cnn12` [Example 17], which logP is on record?
Its logP is 3.90.

With `COCCN(C)c1c(-c2cc(Cl)sc2Cl)c(Cl)nc2c(C#N)cnn12` [Example 18] as the compound, how does the logP read?
The logP was 4.32.

For `CN(CCC#N)c1c(-c2cc(Cl)sc2Cl)c(Cl)nc2c(C#N)cnn12` [Example 19], which logP is on record?
Its logP is 3.90.

With `CCCN(CC1CC1)c1c(-c2cc(Cl)sc2Cl)c(Cl)nc2c(C#N)cnn12` [Example 20] as the compound, how does the logP read?
Its logP is 5.78.

For `N#Cc1cnn2c(N3CCCC3)c(-c3cc(Cl)sc3Cl)c(Cl)nc12` [Example 21], which logP is on record?
Its logP is 4.61.

With `N#Cc1cnn2c(N3CCCCC3)c(-c3cc(Cl)sc3Cl)c(Cl)nc12` [Example 23] as the compound, how does the logP read?
The logP was 6.19.

Which logP does the source give for `CC(C)C(C)Nc1c(-c2cc(Cl)sc2Cl)c(Cl)nc2c(C#N)cnn12` (stereo not shown) [Example 24] here?
Its logP is 5.19.

With `CC1CN(c2c(-c3cc(Cl)sc3Cl)c(Cl)nc3c(C#N)cnn23)CC(C)O1` (stereo not shown) [Example 27] as the compound, how does the logP read?
The logP was 4.72.

Which logP does the source give for `N#Cc1cnn2c(N3CCOCC3)c(-c3cc(Cl)sc3Cl)c(Cl)nc12` [Example 28] here?
The logP was 3.85.

Which logP does the source give for `CC(C)CC(C)Nc1c(-c2cc(Cl)sc2Cl)c(Cl)nc2c(C#N)cnn12` (stereo not shown) [Example 29] here?
Its logP is 5.59.

Which logP does the source give for `N#Cc1cnn2c(NCC(F)(F)F)c(-c3cc(Cl)sc3Cl)c(Cl)nc12` [Example 30] here?
Its logP is 4.06.

Which logP does the source give for `N#Cc1cnn2c(N3CCC(F)(F)CC3)c(-c3ccsc3)c(Cl)nc12` [Example 36] here?
The logP was 3.61.

Which logP does the source give for `N#Cc1cnn2c(N3CCC(C(F)(F)F)CC3)c(-c3ccsc3)c(Cl)nc12` [Example 53] here?
The logP was 4.03.

With `CC1CCCN1c1c(-c2ncncc2Cl)c(Cl)nc2c(C=O)cnn12` (stereo not shown) [Example 54] as the compound, how does the logP read?
Its logP is 2.44.

Which logP does the source give for `CC(Nc1c(-c2ncncc2F)c(Cl)nc2c(C#N)cnn12)C(C)(C)C` (stereo not shown) [Example 56] here?
The logP was 3.29.

For `CC(C)C(C)Nc1c(-c2ncncc2F)c(Cl)nc2c(C#N)cnn12` (stereo not shown) [Example 57], which logP is on record?
The logP was 2.92.

Which logP does the source give for `CC(Nc1c(-c2ncncc2F)c(Cl)nc2c(C#N)cnn12)C(F)(F)F` (stereo not shown) [Example 58] here?
Its logP is 2.65.

For `CC(Nc1c(-c2ncncc2F)c(Cl)nc2c(Cl)cnn12)C(C)(C)C` (stereo not shown) [Example 59], which logP is on record?
The logP was 4.11.

With `CC(Nc1c(-c2ncncc2F)c(Cl)nc2ccnn12)C(C)(C)C` (stereo not shown) [Example 60] as the compound, how does the logP read?
Its logP is 3.42.

Which logP does the source give for `CC(C)C(C)Nc1c(-c2ncncc2F)c(Cl)nc2ccnn12` (stereo not shown) [Example 61] here?
Its logP is 2.98.

Which logP does the source give for `CC(Nc1c(-c2ncncc2Cl)c(Cl)nc2c(C=O)cnn12)C(C)(C)C` (stereo not shown) [Example 62] here?
The logP was 3.12.

For `CC1CCN(c2c(-c3ncncc3F)c(Cl)nc3c(C#N)cnn23)CC1` [Example 63], which logP is on record?
Its logP is 3.20.

For `COC(=O)c1cnn2c(NC(C)C(C)(C)C)c(-c3ncncc3F)c(Cl)nc12` (stereo not shown) [Example 64], which logP is on record?
The logP was 3.15.

Same assay, conditions: HPLC, gradient method, acetonitrile/0.1% aqueous phosphoric acid

Which logP does the source give for `CC(C)CC(C)Nc1c(-c2ccsc2)c(Cl)nc2c(C#N)cnn12` (stereo not shown) [Example 6] here?
The logP was 4.46.

For `CC(Nc1c(-c2ccsc2)c(Cl)nc2c(C#N)cnn12)C(F)(F)F` (stereo not shown) [Example 7], which logP is on record?
The logP was 3.53.

For `N#Cc1cnn2c(NCC(F)(F)F)c(-c3ccsc3)c(Cl)nc12` [Example 8], which logP is on record?
The logP was 3.21.

With `N#Cc1cnn2c(NC3CCCC3)c(-c3cc(Cl)sc3Cl)c(Cl)nc12` [Example 16] as the compound, how does the logP read?
Its logP is 5.03.

With `CC(C)(C)CNc1c(-c2ccsc2)c(Cl)nc2c(C#N)cnn12` [Example 32] as the compound, how does the logP read?
Its logP is 4.18.

With `N#Cc1cnn2c(NC3CCCC3)c(-c3ccsc3)c(Cl)nc12` [Example 33] as the compound, how does the logP read?
The logP was 3.00.

For `CC(C)C(C)Nc1c(-c2ccsc2)c(Cl)nc2c(C#N)cnn12` (stereo not shown) [Example 34], which logP is on record?
The logP was 4.08.

With `CC(C)CNc1c(-c2ccsc2)c(Cl)nc2c(C#N)cnn12` [Example 37] as the compound, how does the logP read?
The logP was 3.78.

Which logP does the source give for `CCC(C)Nc1c(-c2ccsc2)c(Cl)nc2c(C#N)cnn12` (stereo not shown) [Example 38] here?
Its logP is 3.74.

Which logP does the source give for `CC(C)Nc1c(-c2ccsc2)c(Cl)nc2c(C#N)cnn12` [Example 39] here?
The logP was 3.37.

For `CC(C)CN(C)c1c(-c2ccsc2)c(Cl)nc2c(C#N)cnn12` [Example 40], which logP is on record?
The logP was 4.13.

With `N#Cc1cnn2c(N3CCCC3)c(-c3ccsc3)c(Cl)nc12` [Example 41] as the compound, how does the logP read?
The logP was 3.53.

Which logP does the source give for `CC1CCCCN1c1c(-c2ccsc2)c(Cl)nc2c(C#N)cnn12` (stereo not shown) [Example 42] here?
Its logP is 4.27.

For `CC1CCN(c2c(-c3ccsc3)c(Cl)nc3c(C#N)cnn23)CC1` [Example 43], which logP is on record?
The logP was 4.41.

For `N#Cc1cnn2c(N3CCOCC3)c(-c3ccsc3)c(Cl)nc12` [Example 44], which logP is on record?
Its logP is 2.90.

Which logP does the source give for `COCCNc1c(-c2ccsc2)c(Cl)nc2c(C#N)cnn12` [Example 45] here?
The logP was 2.94.

With `CCCN(CC1CC1)c1c(-c2ccsc2)c(Cl)nc2c(C#N)cnn12` [Example 47] as the compound, how does the logP read?
Its logP is 4.51.

With `CC1CN(c2c(-c3ccsc3)c(Cl)nc3c(C#N)cnn23)CC(C)O1` (stereo not shown) [Example 48] as the compound, how does the logP read?
Its logP is 3.53.

For `N#Cc1cnn2c(N3CCCCC3)c(-c3ccsc3)c(Cl)nc12` [Example 49], which logP is on record?
The logP was 3.58.

Which logP does the source give for `COCCN(C)c1c(-c2ccsc2)c(Cl)nc2c(C#N)cnn12` [Example 51] here?
The logP was 3.17.

Which logP does the source give for `CCN(CCC#N)c1c(-c2ccsc2)c(Cl)nc2c(C#N)cnn12` [Example 52] here?
The logP was 2.98.

Which chromatographic logP does the source give for `N#Cc1cnn2c(Cl)c(-c3ncccc3C(F)(F)F)c(Cl)nc12` [Example 65, 3-cyano-5,7-dichloro-6-(3-trifluoromethyl-pyridin-2-yl)-pyrazolo-[1,5-a]pyrimidine] here?
The chromatographic logP was 2.68.

For `N#Cc1cnn2c(O)c(-c3ncccc3C(F)(F)F)c(O)nc12` [Example 68, 3-cyano-6-(3-trifluoromethyl-pyridin-2-yl)-pyrazolo[1,5-a]pyrimidin-5,7-diol], which chromatographic logP is on record?
Its chromatographic logP is 0.29.

Which chromatographic logP does the source give for `CC1CCN(c2c(-c3ncncc3Cl)c(Cl)nc3c(C=O)cnn23)CC1` [Example 74, 5-chloro-6-(5-chloro-pyrimidin-4-yl)-3-formyl-7-(4-methyl-piperidin-1-yl)-pyrazolo[1,5-a]-pyrimidine] here?
The chromatographic logP was 3.04.

Which chromatographic logP does the source give for `C=Cc1cnn2c(N3CCC(C)CC3)c(-c3ncncc3Cl)c(Cl)nc12` [Example 75] here?
The chromatographic logP was 4.7.

Source: patent US20070037828A1, “Pyrazolopyrimidines” (priority 2003, published 2007)
